Reference: US20240255531A1, “MATURE ADRENOMEDULLIN FOR THERAPY STRATIFICATION OF CORTICOSTEROIDS IN CRITICALLY ILL PATIENTS” (priority 2021, published 2024)
Like-named read-outs stand apart in the source and are kept apart here.

Key:
[1] = system: hypothalamic-pituitary-adrenal axis suppression; conditions: cited from earlier work
[2] = relative to hydrocortisone; cited from earlier work
[3] = relative to hydrocortisone; cited from earlier work; remark: listed apart in the source
[4] = Stability of human Adrenomedullin in human Citrate plasma at 24° C.; type: in vitro ADME; conditions: for recovery: 10 ng ADM/ml, read-out: Average ADM recovery (N = 5); for Average loss of immune reactivity: average over time points
Experimental: Human ADM was diluted in human Citrate plasma (n=5, final concentration 10 ng ADM/ml) and incubated at 24° C. At selected time points, aliquots were frozen at −20° C.

[5] = system: patients with septic shock; conditions: hydrocortisone alone; cited from earlier work
[6] = system: adult patients with severe sepsis who were not in septic shock; assay: HYPRESS case-control analysis, hydrocortisone vs. placebo by bio-ADM </>70 pg/mL (PP population); type: in vivo, human; conditions: for patients who developed shock: PP population
Experimental: The HYPRESS study is a double-blind, randomized clinical trial conducted from Jan. 13, 2009, to Aug. 27, 2013, with a follow-up of 180 days until Feb. 23, 2014 (Keh et al. 2016. JAMA 316(17): 1775-1785). The trial was performed in 34 intermediate or intensive care units of university and community hospitals in Germany, and it included 380 adult patients with severe sepsis who were not in septic shock.
Patients were screened in intermediate care units or intensive care units (ICUs) of university and community hospitals for eligibility, and written informed consent was obtained from patients, patient-authorized representatives, or legal representatives. Patients were enrolled if they met all inclusion criteria: (1) provided informed consent; (2) had evidence of infection; (3) had evidence of a systemic response to infection, defined as at least 2 systemic inflammatory response syndrome criteria 12; and (4) had evidence of organ dysfunction present for not longer than 48 hours. The main exclusion criterion was septic shock. Other exclusion criteria were being younger than 18 years, having known hypersensitivity to hydrocortisone or mannitol (placebo), or having a history of glucocorticoid medication with indication for continuation of therapy or other indications for treatment with glucocorticoids. Patients were not excluded for using etomidate within 72 hours before enrolment, using a short course of glucocorticoids within 72 hours before enrolment, or using topical or inhaled glucocorticoids.
Septic shock was defined as sepsis-induced hypotension despite adequate volume status for longer than 4 hours (ie, mean arterial pressure <65 mm Hg, systolic arterial pressure <90 mm Hg, or the use of vasopressors to keep mean arterial pressure ≥65 mm Hg or systolic arterial pressure ≥90 mm Hg). […] Adequate volume status was defined as a central venous pressure of 8 mm Hg or greater (≥12 mm Hg in ventilated patients) and a central venous oxygen saturation greater than 70%. For fluid replacement, patients were to receive at least 500 to 1000 mL of crystalloids or 300 to 500 mL of colloids over 30 minutes. The use of hydroxyethyl starch preparations was discouraged owing to possible harmful effects on kidney function. Use of vasopressors was defined as therapy with dopamine at a dosage of at least 5 μg/kg/min or with any dose of epinephrine, norepinephrine, vasopressin, or other vasopressors.
The study medication (hydrocortisone and placebo) was produced and released by BAG Health Care GmbH. The medication was delivered in boxes, each containing 17 brown glass vials for 1 patient. Each vial contained 100 mg of lyophilized hydrocortisone hydrogen succinate or the same amount of lyophilized mannitol as placebo, which was indistinguishable from hydrocortisone. The medication was administered as an intravenous bolus of 50 mg, followed by a 24-hour continuous infusion of 200 mg on 5 days, 100 mg on days 6 and 7, 50 mg on days 8 and 9, and 25 mg on days 10 and 11.
For the present analysis, a total of n=110 cases and controls from the intention-to-treat data set of the SepNet study HYPRESS study (ClinicalTrials.gov number: NCT00670254) were selected, of which n=97 were treated according to protocol and selected for the analysis. Patients with and without septic shock during their ICU stay were selected at a 1:1 ratio. Control patients were matched according to demographics, organ dysfunction, concomitant medication and other outcomes.
The primary end point for the case-control study was the occurrence of septic shock within 28 days, or discharge from the ICU. The goal was to identify potential interaction between the levels of bio-ADM (</>70 pg/mL) and treatment arm (hydrocortisone vs. placebo).

[7] = system: patients at risk for sepsis / septic shock; conditions: preventive administration; cited from earlier work

## C[C@H]1C[C@@H]2[C@H]([C@@H](O)C[C@@]3(C)[C@H]2CC[C@]3(O)C(=O)CO)[C@@]2(C)C=CC(=O)C=C12 [Methylprednisolone]
[1]
  Half-life duration of action: 12 to 36 h

## C[C@]12CCC(=O)C=C1CC[C@H]1[C@@H]3CC[C@](O)(C(=O)CO)[C@@]3(C)C[C@H](O)[C@@]12F [Fludrocortisone]
[1]
  Half-life duration of action: 24 to 36 h

## C[C@]12C=CC(=O)C=C1CC[C@@H]1[C@@H]2[C@@H](O)C[C@@]2(C)[C@H]1CC[C@]2(O)C(=O)CO [Prednisolone]
[2]
  Potency relat. to hydrocortisone, Mineralcorticoid: 0.8
[3]
  Potency relat. to hydrocortisone, Anti-inflammatory: 4
[1]
  Half-life duration of action: 12 to 36 h

## CC[C@H](C)[C@H](NC(=O)[C@H](CCC(N)=O)NC(=O)[C@H](Cc1c[nH]cn1)NC(=O)[C@H](C)NC(=O)[C@H](CC(C)C)NC(=O)[C@H](CCCCN)NC(=O)[C@H](CCC(N)=O)NC(=O)[C@@H](NC(=O)[C@@H](NC(=O)[C@@H]1CSSC[C@H](NC(=O)CNC(=O)[C@H](Cc2ccccc2)NC(=O)[C@H](CO)NC(=O)[C@H](CCCNC(=N)N)NC(=O)[C@H](CC(C)C)NC(=O)CNC(=O)[C@H](CCC(N)=O)NC(=O)[C@H](Cc2ccccc2)NC(=O)[C@H](CC(N)=O)NC(=O)[C@H](CC(N)=O)NC(=O)[C@H](CCSC)NC(=O)[C@H](CO)NC(=O)[C@H](CCC(N)=O)NC(=O)[C@H](CCCNC(=N)N)NC(=O)[C@@H](N)Cc2ccc(O)cc2)C(=O)N[C@@H](CCCNC(=N)N)C(=O)N[C@@H](Cc2ccccc2)C(=O)NCC(=O)N[C@@H]([C@@H](C)O)C(=O)N1)[C@@H](C)O)C(C)C)C(=O)N[C@@H](Cc1ccc(O)cc1)C(=O)N[C@@H](CCC(N)=O)C(=O)N[C@@H](Cc1ccccc1)C(=O)N[C@H](C(=O)N[C@@H](CC(=O)O)C(=O)N[C@@H](CCCCN)C(=O)N[C@@H](CC(=O)O)C(=O)N[C@@H](CCCCN)C(=O)N[C@@H](CC(=O)O)C(=O)N[C@@H](CC(N)=O)C(=O)N[C@H](C(=O)N[C@@H](C)C(=O)N1CCC[C@H]1C(=O)N[C@@H](CCCNC(=N)N)C(=O)N[C@@H](CO)C(=O)N[C@@H](CCCCN)C(=O)N[C@H](C(=O)N[C@@H](CO)C(=O)N1CCC[C@H]1C(=O)N[C@@H](CCC(N)=O)C(=O)NCC(=O)N[C@@H](Cc1ccc(O)cc1)C(N)=O)[C@@H](C)CC)C(C)C)[C@@H](C)O [hADM]
[4]; 0 h
  recovery: 100%
[4]; 2 h
  Loss of immune reactivity %/h: 0.4 %/h
  recovery: 99.2%
[4]; 4 h
  Loss of immune reactivity %/h: 0.8 %/h
  recovery: 96.4%
[4]; 8 h
  Loss of immune reactivity %/h: 1.5 %/h
  recovery: 88.2%
[4]
  Average loss of immune reactivity: Average: 0.9%/h
[4]; listed as ADM
  Average loss of immune reactivity: 0.9 %/h
[4]; human citrate plasma, 2 h, read-out: Relative loss of immune reactivity
  metabolised at 2 h, 10 ng/ml: 0.8%
[4]; human citrate plasma, 4 h, read-out: Relative loss of immune reactivity
  metabolised at 4 h, 10 ng/ml: 3.6%
[4]; human citrate plasma, 8 h, read-out: Relative loss of immune reactivity
  metabolised at 8 h, 10 ng/ml: 11.8%

## C[C@]12C=CC(=O)C=C1CC[C@@H]1[C@@H]2C(=O)C[C@@]2(C)[C@H]1CC[C@]2(O)C(=O)CO [Prednisone]
[1]
  Half-life duration of action: 12 to 36 h

## C[C@]12CCC(=O)C=C1CC[C@@H]1[C@@H]2[C@@H](O)C[C@@]2(C)[C@H]1CC[C@]2(O)C(=O)CO [Hydrocortisone]
[2]
  Potency relat. to hydrocortisone, Mineralcorticoid: 1
[5]
  survival effect: no survival effect
[3]
  Potency relat. to hydrocortisone, Anti-inflammatory: 1
[1]
  Half-life duration of action: 8 to 12 h
[6]; patients with bio-AD<70 pg/mL
  needed additional treatment with Benzodiazepine: 12.0%
[6]; patients with bio-ADM<70 pg/mL
  median length of stay: 22 days
  needed a surgical intervention: 48.0%
  needed additional treatment with Propofol: 16.0%
  needed additional treatment with opioids: 40.0%
  survived the 90-day follow up: 76.0%
  patients who developed shock: 40%
[6]; patients with bio-ADM>70 pg/mL
  median length of stay: 25 days
  needed a surgical intervention: 27.3%
  needed additional treatment with Benzodiazepine: 13.6%
  needed additional treatment with Propofol: 4.5%
  needed additional treatment with opioids: 31.8%
  survived the 90-day follow up: 72.7%
  patients who developed shock: 50%
[7]
  risk of a septic shock within 14 days: doesn't reduces the risk

## CC(=O)OCC(=O)[C@@]1(O)CC[C@H]2[C@@H]3CCC4=CC(=O)CC[C@]4(C)[C@H]3C(=O)C[C@@]21C [Cortisone acetate]
[2]
  Potency relat. to hydrocortisone, Mineralcorticoid: 0.8
[3]
  Potency relat. to hydrocortisone, Anti-inflammatory: 0.8
[1]
  Half-life duration of action: 8 to 12 h
